Experiments:
[1] = tested on: cell membranes; conditions: cited from earlier work
[2] = tested on: mammals; assay: toxicity in mammals (unpublished proprietary studies); assay type: in vivo; conditions: 2 g/kg of body weight
[3] = tested on: human cell systems; conditions: cited from earlier work

SMILES: OCCc1ccc(O)c(O)c1 [HT, Hydroxytyrosol]
- permeation of the cell membranes, mechanism [1]: passive mechanism
- toxicity or evident alterations in the internal organs [2]: does not cause toxicity or evident alterations in the internal organs
- effect on cytotoxic effects of reactive oxygen species [3]: effectively counteracts the cytotoxic effects
